≈ marks a conversion by molar mass, not a printed value.
Experiments:
Assay type in all cases: functional
[1] = tested on: Enterococcus faecalis; assay: Antimicrobial activity against recombination-deficient Enterococcus faecalis JH2-2 recA harboring nucleotides at position 2576 in rrlA 2576T, rrlB 2576G, rrlC 2576T and rrlD 2576T after 10, 11 passages under Linezolid selective pressure by agar dilution method
[2] = tested on: Enterococcus faecalis; assay: Antimicrobial activity against Enterococcus faecalis JH2-2 harboring nucleotides at position 2576 in rrlA 2576T, rrlB 2576G, rrlC 2576G/T and rrlD 2576T after 6, 8 passages under Linezolid selective pressure by agar dilution method
[3] = tested on: Enterococcus faecalis; assay: Antimicrobial activity against Enterococcus faecalis JH2-2 harboring nucleotides at position 2576 in rrlA 2576T, rrlB 2576G, rrlC 2576T and rrlD 2576T after 9, 10, 11 passages under Linezolid selective pressure by agar dilution method

Molecule CC(=O)NC[C@H]1CN(c2ccc(N3CCOCC3)c(F)c2)C(=O)O1 [LINEZOLID] has an MIC [1] of 32 µg/mL, an MIC [2] of 32 µg/mL (≈ 94.9 µM) and an MIC [3] of 64 µg/mL (≈ 190 µM).

Reference: ChEMBL document CHEMBL1649577, “Influence of recombination on development of mutational resistance to linezolid in Enterococcus faecalis JH2-2” (2009)
